Experimental data from patent publication US9051310B2, “Nicotinamide derivative or salt thereof” (FUJIFILM Corporation, priority 2011, dated 2015).
Counter-ions that a name gives are not always drawn.

Experiments:
[1] = target: T1, glutathione S-transferase (GST)-linked full-length human Syk protein (Homo sapiens, UniProt P43405); assay: Syk enzyme assay; format: biochemical; conditions: 0.83 nM Syk, time-resolved fluorescence; read-out: IC50 of Syk-inhibitory activity
T1 construct: glutathione S-transferase (GST)-linked full-length human Syk protein; purchased Carna Biosciences; host or cells: Baculovirus expression system
In short: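 Phosphotyrosine on a biotin-peptide substrate (0.5 μM) was read by time-resolved fluorescence at 615 and 665 nm with Eu-anti-pTyr antibody and APC-streptavidin after 1 h EDTA stop.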

[2] = system: THP-1 cells (TNFα secretion on human IgG-coated plate); assay: TNFα generation assay; format: cell-based; conditions: IFN-γ differentiated THP-1 cells, 7 hours, AlphaLISA, read-out: IC50 of TNFα generation inhibitory activity
In short: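 THP-1 cells were differentiated with 10 ng/ml IFN-γ for 2 days, then preincubated with compound for 30 min at room temperature. They were then plated at 5×10^4 cells/well on plates coated with human IgG (10 μg/ml). TNFα secreted over 7 h of culture was quantified by AlphaLISA.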

[3] = system: THP-1 cells (phagocytosis of opsonized Escherichia coli); assay: Antibody-dependent phagocytosis assay; format: cell-based; conditions: Homo sapiens; IFNγ differentiated THP-1 cells, opsonized pHrodo Escherichia coli, 3 hours; read-out: IC50 upon phagocytosis inhibition
In short: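 THP-1 cells were differentiated to macrophage-like cells with 10 ng/ml IFNγ for 2 days, then treated with test compound for 30 min at room temperature. pHrodo-labeled E. coli opsonized with anti-E. coli antibody were added for 3 h at 37° C. Phagocytosis by viable (Calcein AM-positive) cells was quantified by imaging.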

[4] = system: rat type II collagen arthritis; assay: Rat type II collagen-induced arthritis; format: in vivo; conditions: female Lewis rats, oral administration 10 mg/kg/day, Day 7 to Day 20 once daily, Student's t-test
Experimental: The compounds were tested to examine effects upon rat type II collagen arthritis. Equivalent volumes of 0.05 mol/L acetic acid in which a 3 mg/mL bovine type II collagen solution (Collagen Gijutsu Kenshu-Kai) had been dissolved and Freund's incomplete adjuvant (Wako Pure Chemical Industries, Ltd.) were mixed to prepare an emulsion. A portion of the emulsion (0.5 ml) was intradermally injected into the tail bases of 6- to 8-week-old female Lewis rats (Charles River Laboratories Japan, Inc.) (Day 0). Each rat was subjected to the same treatment on Day 7 after the initial inoculation so as to induce arthritis. Each test compound was orally administered from Day 7 to Day 20 once daily. At a given time during the period from Day 7 to Day 21, the rat hindlimb volume was determined using a plethysmometer (UGO BASILE), and the result was designated as an arthritis index.

[5] = system: mouse thrombocytopenia induced by anti-mouse CD41 antibody; assay: Mouse thrombocytopenia model; format: in vivo; conditions: Platelet, female BALB/c mice, 50 mg/kg 1 hour before anti-CD41 antibody, blood sampling 4 hours after antibody, read-out: improvement of platelet count compared with the control group
Experimental: Test compounds were tested to examine effects upon mouse thrombocytopenia. Each test compound (50 mg/kg) was administered to 5- to 7-week-old female BALB/c mice (Charles River Laboratories Japan, Inc.). One hour thereafter, an anti-mouse CD41 ([…]) antibody (SCB) (1 μg (200 μl)) was intravenously administered to each mouse so as to induce thrombocytopenia. Four hours after administration of the anti-CD41 antibody, blood sampling from the postcava was performed. The platelet count was determined using an automated hematology analyzer.

[6] = system: 191 types of kinases excluding Syk; assay: Selectivity of kinase inhibition (Profiler Pro kits); format: biochemical; conditions: test compound 100 nM; 191 kinases excluding Syk
Experimental: The concentrations of test compounds were adjusted to 100 nM. The test compounds were examined using Profiler Pro kits (Caliper) in terms of activity against each of 191 types of kinases excluding Syk.

Structure (SMILES)	IC50 [1] [nM]	IC50 [2] [nM]	IC50 [3] [nM]	number of kinases other than Syk with kinase inhibitory rate of 75% or more [6]	hindlimb swelling on Day 20 compared with the control group [4]	change in vivo at 50 mg/kg [5] [%]
C[C@H](N)[C@H](Nc1nc(Nc2cnc(N3CCOCC3)c(F)c2)c(C(N)=O)cc1F)C1CC1 [Example 2-76, 6-(((1R,2S)-2-amino-1-cyclopropylpropyl)amino)-5-fluoro-2-((5-fluoro-6-morpholinopyridin-3-yl)amino)nicotinamide]	10 to 50	130 to 200	1000 to 3000	8 types of kinases	significantly inhibited hindlimb swelling	≥ 50
CN(C)c1nn(C)c2c(F)cc(Nc3nc(N[C@@H]4CCCC[C@@H]4N)c(F)cc3C(N)=O)cc12 [Example 2-184, 6-(((1R,2S)-2-aminocyclohexyl)amino)-2-((3-(dimethylamino)-7-fluoro-1-methyl-1H-indazole-5-yl)amino)-5-fluoronicotinamide hydrochloride]	< 10	65 to 130	< 1000	–	significantly inhibited hindlimb swelling	≥ 50
Cn1nc(OC(F)F)c2cc(Nc3nc(N[C@@H]4CCOC[C@@H]4N)c(F)cc3C(N)=O)ccc21 [Example 2-348, 6-(((3R,4R)-3-aminotetrahydro-2H-pyran-4-yl)amino)-2-((3-(difluoromethoxy)-1-methyl-1H-indazol-5-yl)amino)-5-fluoronicotinamide]	< 10	130 to 200	< 1000	–	–	≥ 50

Second part, led by results:

IC50 [1] [nM]	IC50 [2] [nM]	IC50 [3] [nM]	number of kinases other than Syk with kinase inhibitory rate of 75% or more [6]	Structure (SMILES)	hindlimb swelling on Day 20 compared with the control group [4]	change in vivo at 50 mg/kg [5] [%]
< 10	65 to 130	< 1000	–	CN(C)c1nn(C)c2ccc(Nc3nc(N[C@@H]4CCCC[C@@H]4N)c(F)cc3C(N)=O)cc12 [Example 2-1, 6-(((1R,2S)-2-aminocyclohexyl)amino)-2-((3-(dimethylamino)-1-methyl-1H-indazol-5-yl)amino)-5-fluoronicotinamide]	significantly inhibited hindlimb swelling	≥ 50
< 10	130 to 200	1000 to 3000	–	COCCn1ncc2c(Nc3nc(N[C@@H]4CCCC[C@@H]4N)c(F)cc3C(N)=O)cccc21 [Example 2-302, 6-(((1R,2S)-2-aminocyclohexyl)amino)-5-fluoro-2-((1-(2-methoxyethyl)-1H-indazol-4-yl)amino)nicotinamide]	–	≥ 50
< 10	65 to 130	< 1000	–	CCn1ncc2c(Nc3nc(N[C@@H]4CCOC[C@@H]4N)c(F)cc3C(N)=O)cccc21 [Example 2-330, 6-(((3R,4R)-3-aminotetrahydro-2H-pyran-4-yl)-amino)-2-((1-ethyl-1H-indazol-4-yl)amino)-5-fluoronicotinamide]	–	≥ 50
